Patent US9284318B2, “Protein kinase inhibitors” (Pharmascience, Inc., priority 2011, dated 2016)

How the values were obtained:
MV4-11 cells = experiment: Human MV4-11 biphenotypic B myelomonocytic leukemia cell survival assay; format: cell-based; conditions: cell survival at 72h, Cell Titer-Glo
Method: Human MV4-11 Biphenotypic B Myelomonocytic Leukemia Cell Survival Assay
Biphenotypic B myelomonocytic leukemia MV4-11 cells (ATCC CRL-9591) were cultured in suspension at 37° C., 5% CO2 in complete medium (RPMI supplemented with 10% FBS, 1% penicillin/streptomycin). One day prior to treatment, cells per seeded in 96-well plates at 8000 cells/well in complete medium. The following day, triplicate wells were treated with compound curves of 100, 1000 or 10,000 nM starting concentration according to compound potency. Cell survival was measured 72h later by Cell Titer-Glo Luminescent Assay (Promega). Luminescence was read using a Tecan Infinite F200 microplate reader. EC50 values (50% survival in the presence of compound as compared to vehicle treated controls) were calculated from non-linear fit dose response compound curves using CambridgeSoft BioAssay software (Perkin Elmer).

[1] = target: T1, recombinant human colony stimulating factor 1 receptor (FMS) (Homo sapiens, UniProt P07333); experiment: Biochemical cFMS (CSF1R) fluorescence polarization kinase assay; conditions: 10 μM ATP, 100 μM substrate, 60 minutes
T1 construct: containing the catalytic domain (amino acids 538-910); His tag; purchased Invitrogen; host or cells: insect cells
T1 sequence (P07333 538-910): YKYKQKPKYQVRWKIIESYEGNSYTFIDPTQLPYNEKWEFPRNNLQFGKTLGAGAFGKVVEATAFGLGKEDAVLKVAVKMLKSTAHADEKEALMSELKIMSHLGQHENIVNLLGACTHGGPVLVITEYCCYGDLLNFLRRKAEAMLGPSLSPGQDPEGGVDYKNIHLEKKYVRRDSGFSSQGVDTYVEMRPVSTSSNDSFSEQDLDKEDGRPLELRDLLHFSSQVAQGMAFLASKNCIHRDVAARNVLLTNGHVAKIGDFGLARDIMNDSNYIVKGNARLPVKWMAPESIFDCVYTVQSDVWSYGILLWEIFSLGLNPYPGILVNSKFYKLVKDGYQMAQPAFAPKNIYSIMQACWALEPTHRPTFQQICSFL
Method: Biochemical cFMS (CSF1R) Assay:
Fluorescence polarization-based kinase biochemical assays were performed in 384 well-plate format using histidine tagged recombinant human colony stimulating factor 1 receptor (FMS) supplied from Invitrogen™ (containing the catalytic domain (amino acids 538-910), expressed in insect cells and activated in vitro via auto phosphorylation) and a modified protocol of the KinEASE™ FP Fluorescein Green Assay supplied from Millipore™.
Kinase reactions were performed in 384 well plate format at room temperature for 60 minutes in presence of 100 μM substrate, 10 μM ATP and variable test article concentrations. The reaction was stopped with EDTA/KinEASE™ detection reagents and the polarization measured on a Tecan 500 instrument. From the dose-response curve obtained, the IC50 was estimated using Graph pad Prisms® using a non linear fit curve.

[2] = test system: M-NFS-60 M-CSF-dependent myeloid leukemia cells; experiment: Murine M-CSF-dependent M-NFS-60 cell survival assay; format: cell-based; conditions: Mus musculus; cell survival at 72 hours, 20 ng/ml M-CSF, Cell Titer-Glo
Method: Cellular Assays: Murine M-CSF-Dependent M-NFS-60 Cell Survival Assay
Murine M-NFS-60 M-CSF-dependent myeloid leukemia cells were purchased from ATCC (CRL-1838). Cells were routinely cultured at 37° C., 5% CO2 in complete medium (RPMI supplemented with 10% FBS, 1% penicillin/streptomycin, 50 uM beta mercaptoethanol) containing 30 ng/ml recombinant murine M-CSF (Peprotech 315-02). For survival assays, cells were transferred to depleted medium (complete medium depleted of M-CSF) for 24 hours prior to initiation of each experiment. M-CSF-starved cells were harvested and re-suspended in complete medium containing 20 ng/ml M-CSF. Cells were seeded at 25,000 cells/well in 96-well plates and incubated for 1 hour at 37° C., 5% CO2. Cells were treated with 1 uM or 10 uM compound curves in triplicate and cell survival was measured 72 hours later by Cell Titer-Glo Luminescent Assay (Promega). Luminescence was read using a Tecan Infinite F200 microplate reader. EC50 values (50% survival in the presence of compound as compared to vehicle treated controls) were calculated from non-linear fit dose response compound curves using GraphPad Prism Software.

For `Nc1ccc(-n2c3c(c4ncnc(N)c42)CCC3)cc1` [Compound 2], the EC50 (MV4-11 cells) was < 100 nM.

In the case of `Nc1ncnc2c3c(n(-c4ccc(NS(=O)(=O)c5ccccc5)cc4)c12)CCC3` [Compound 3], the EC50 (MV4-11 cells) is reported as > 1000 nM, the IC50 [1] is reported as > 1000 nM and the EC50 [2] is reported as > 1000 nM.

For `Nc1ncnc2c3c(n(-c4ccc(NC(=O)Nc5ccccc5)cc4)c12)CCC3` [Compound 4], the EC50 (MV4-11 cells) was < 100 nM, the IC50 [1] was < 100 nM and the EC50 [2] was < 100 nM.

`Nc1ncnc2c3c(n(-c4ccc5c(c4)OCO5)c12)CCC3` [Compound 5] was tested, and the EC50 (MV4-11 cells) was > 1000 nM.

For `CS(=O)(=O)Nc1ccc(-n2c3c(c4ncnc(N)c42)CCC3)cc1` [Compound 6], the EC50 (MV4-11 cells) was > 1000 nM.

`COc1ccc(-n2c3c(c4ncnc(N)c42)CCC3)cc1` [Compound 7] was tested, and the EC50 (MV4-11 cells) was > 1000 nM.

With `CCNC(=O)Nc1ccc(-n2c3c(c4ncnc(N)c42)CCC3)cc1` [Compound 9] the EC50 (MV4-11 cells) was 100 to 1000 nM, the IC50 [1] was > 1000 nM and the EC50 [2] was > 1000 nM.

`Nc1ncnc2c3c(n(-c4ccc(NC(=O)c5ccccc5)cc4)c12)CCC3` [Compound 10] was tested, and the EC50 (MV4-11 cells) was > 1000 nM, the IC50 [1] was > 1000 nM and the EC50 [2] was > 1000 nM.

With `COc1cccc(NC(=O)Nc2ccc(-n3c4c(c5ncnc(N)c53)CCC4)cc2)c1` [Compound 11] the EC50 (MV4-11 cells) was < 100 nM, the IC50 [1] was < 100 nM and the EC50 [2] was < 100 nM.

With `Nc1ncnc2c3c(n(-c4ccc(Nc5ccccc5)cc4)c12)CCC3` [Compound 12] the EC50 (MV4-11 cells) was > 1000 nM, the IC50 [1] was > 1000 nM and the EC50 [2] was > 1000 nM.

In the case of `COc1ccc(NC(=O)Nc2ccc(-n3c4c(c5ncnc(N)c53)CCC4)cc2)cc1` [Compound 13], the EC50 (MV4-11 cells) is reported as < 100 nM and the EC50 [2] is reported as < 100 nM.

`Nc1ncnc2c3c(n(Cc4ccccc4)c12)CCC3` [Compound 15] was tested, and the EC50 (MV4-11 cells) was > 1000 nM.

`COc1ccccc1NC(=O)Nc1ccc(-n2c3c(c4ncnc(N)c42)CCC3)cc1` [Compound 16] was tested, and the EC50 (MV4-11 cells) was < 100 nM, the IC50 [1] was 100 to 1000 nM and the EC50 [2] was < 100 nM.

`Nc1ncnc2c3c(n(-c4ccc(NC(=O)Nc5cccc(C(F)(F)F)c5)cc4)c12)CCC3` [Compound 17] was tested, and the EC50 (MV4-11 cells) was < 100 nM, the IC50 [1] was 100 to 1000 nM and the EC50 [2] was < 100 nM.

With `Nc1ccc(-n2c3c(c4ncnc(N)c42)CCCC3)cc1` [Compound 18] the EC50 (MV4-11 cells) was 100 to 1000 nM.

With `Nc1ncnc2c3c(n(-c4ccc(NC(=O)Nc5cccc(F)c5)cc4)c12)CCC3` [Compound 19] the EC50 (MV4-11 cells) was 100 to 1000 nM, the IC50 [1] was < 100 nM and the EC50 [2] was < 100 nM.

In the case of `Nc1ncnc2c3c(n(-c4ccc(NC(=O)Nc5ccc(Cl)cc5)cc4)c12)CCC3` [Compound 22], the EC50 (MV4-11 cells) is reported as 100 to 1000 nM and the EC50 [2] is reported as < 100 nM.

With `Nc1ncnc2c3c(n(-c4ccc(O)cc4)c12)CCC3` [Compound 26] the EC50 (MV4-11 cells) was > 1000 nM.

For `Nc1ncnc2c3c(n(CCc4ccccc4)c12)CCC3` [Compound 29], the EC50 (MV4-11 cells) was > 1000 nM.

`Nc1ncnc2c3c(n(-c4ccc(NC(=O)OCc5ccccc5)cc4)c12)COC3` [Compound 31] was tested, and the EC50 (MV4-11 cells) was 100 to 1000 nM.

`Nc1ccc(-n2c3c(c4ncnc(N)c42)COC3)cc1` [Compound 32] was tested, and the EC50 (MV4-11 cells) was 100 to 1000 nM.

With `COc1ccc(-n2c3c(c4ncnc(N)c42)CCC3)cc1OC` [Compound 34] the EC50 (MV4-11 cells) was > 1000 nM.

In the case of `CC(=O)Nc1ccc(-n2c3c(c4ncnc(N)c42)CCC3)cc1` [Compound 37], the EC50 (MV4-11 cells) is reported as > 1000 nM.

For `C[C@H](NC(=O)Nc1ccc(-n2c3c(c4ncnc(N)c42)CCC3)cc1)c1ccccc1` [Compound 38], the EC50 (MV4-11 cells) was > 1000 nM and the EC50 [2] was 100 to 1000 nM.

`Nc1ncnc2c3c(n(CCCc4ccccc4)c12)CCC3` [Compound 40] showed an EC50 (MV4-11 cells) of 100 to 1000 nM.

`Nc1ncnc2c3c(n(-c4ccc(NC(=O)NCCc5ccc(F)cc5)cc4)c12)CCC3` [Compound 42] was tested, and the EC50 (MV4-11 cells) was < 100 nM and the EC50 [2] was 100 to 1000 nM.

With `Nc1ncnc2c3c(n(-c4ccccc4)c12)CCC3` [Compound 49] the EC50 (MV4-11 cells) was 100 to 1000 nM.

`Nc1ncnc2c3c(n(CCCCc4ccccc4)c12)CCC3` [Compound 51] was tested, and the EC50 (MV4-11 cells) was > 1000 nM.

In the case of `Nc1ncnc2c3c(n(-c4ccc(NC(=O)NCc5ccc(F)cc5)cc4)c12)CCC3` [Compound 52], the EC50 (MV4-11 cells) is reported as < 100 nM and the EC50 [2] is reported as 100 to 1000 nM.

In the case of `COc1cc(NC(=O)Nc2ccc(-n3c4c(c5ncnc(N)c53)CCC4)cc2)cc(C(F)(F)F)c1` [Compound 70], the EC50 (MV4-11 cells) is reported as < 100 nM.

`CC(C)(C)c1cc(NC(=O)Nc2ccc(-n3c4c(c5ncnc(N)c53)CCC4)cc2)no1` [Compound 74] was tested, and the IC50 [1] was < 100 nM and the EC50 [2] was < 100 nM.
